We go through twelve molecules from patent US11376580B2, “Methods and systems comprising modified pipettes for transferring and preserving biomaterial” (UNIVERSITY OF PITTSBURGH—OF THE COMMONWEALTH SYSTEM OF …, priority 2017, dated 2022).

Like-named read-outs stand apart in the source and are kept apart here.

In data set [1] the test system is primary human hepatocytes.
Data set [2] concerns HEK293 cells.
The test system of data set [3] is HEK293 cells. The source holds these as a separate data set.
The nature of data set [4]: in vitro. As to conditions: human.
The nature of data set [5]: in vitro. The conditions noted are these: human. This is another data set of the same source.
A short description of data set [6]: in vitro. The conditions noted are these: human. This is another data set of the same source.
In data set [7] the test system is Human primary hepatocytes. The class given is in vitro ADME.
For data set [8], the system named is primary human hepatocytes. As to conditions: for Metabolite Generation (marker metabolite of the probe): 10 uM. The protocol: Probe metabolism was tested as a fresh hepatocyte suspension culture, as a fresh agarose gelled BioActivator and after thawing a cryopreserved BioActivator. In all three testing conditions 50,000 viable hepatocytes were tested as following: (a) as a suspension in 500 μl of probe media, or, (b) in 50 μl of gelled agarose submerged in 450 μl of probe media. Cryopreserved BioActivators were thawed for testing after 48 hours at −80° C. Probe media was collected from the 3 test conditions at 30 minutes and 18 hours. Ice-cold acetonitrile containing 10 μM chlorzoxazone (internal extraction standard) was added at a 2:1 ratio to the collected media. The extraction mixture was analyzed by LC MS/MS.

Where [9] appears, read: HEK293 Cytotoxicity LC50, HEK293 + BioActivator Pre-Conditioned Media.
[10] abbreviates: HEK293 Cytotoxicity LC50, HEK 293 + Cell Free Agarose Bead Pre-Conditioned Media.
[11] abbreviates: HEK293 Cytotoxicity LC50, HEK293 + BioActivator.
The mark [12] stands for this setting: HEK293 Cytotoxicity LC50, HEK 293 + cell free agarose beads.
Setting [13] is: HEK293 Cytotoxicity LC50, HEK293 + BioActivator Pre-Conditioned Media, compounds pre-conditioned 24 h in BioActivator, then 24 h on HEK293, Mean ± SD (N = 3).
Where [14] appears, read: HEK293 Cytotoxicity LC50, HEK293 + BioActivator, co-cultured 24 hours with BioActivators, Mean ± SD (N = 3), max 250 μM.
[15] abbreviates: HEK293 Cytotoxicity LC50, HEK 293 + cell free agarose beads, co-cultured 24 hours with cell free agarose beads, Mean ± SD (N = 3), max 250 μM.

With `Nc1ccc2ccccc2c1` [2-Napthylamine, 2-Napthylamine], the CC50 in data set [1] was > 250 µM. In addition, in the data set on HEK293 cells [2], the “HEK293 cytotoxicity co-cultured with BioActivator (in words)” value is “No HEK293 cytotoxicity” and the “HEK293 cytotoxicity co-cultured with cell free agarose bead (in words)” value was “No HEK293 cytotoxicity”.

As to `O=[N+]([O-])c1ccc(O)cc1` [4-Nitrophenol, 4-Nitrophenol], the “HEK293 cytotoxicity of compounds pre-conditioned in the BioActivator (in words)” value with HEK293 cells [3] is listed as “produce cytotoxicity”. Also, the CC50 in “in vitro [4]” (setting [9]) was 199 µM; in “in vitro [4]” (setting [10]), > 250 µM; in the data set “in vitro [5]” (setting [11]), 101 µM; in the data set “in vitro [5]” (setting [12]), > 250 µM; in the data set “in vitro [6]”, > 250 µM.

In the case of `Nc1cc2c3ccccc3ccc2c2ccccc12` [6-Aminochrysene], the “HEK293 cytotoxicity of compounds pre-conditioned in the BioActivator (in words)” value with HEK293 cells [3] (compared to compounds pre-conditioned in cell free agarose beads) is “produce cytotoxicity”. In addition, the CC50 in “in vitro [4]” (setting [13]) was 241 ± 9.8 µM; in the data set “in vitro [5]” (setting [14]), 84 ± 2 µM; in “in vitro [5]” (setting [15]), > 250 µM; in “in vitro [6]”, > 250 µM.

For the molecule `C=CC(N)=O` [Acrylamide], the CC50 in the data set “in vitro [4]” (setting [9]) is > 250 µM; in “in vitro [4]” (setting [10]), > 250 µM; in the data set “in vitro [5]” (setting [11]), 167 ± 7.9 µM; in “in vitro [5]” (setting [12]), > 250 µM; in “in vitro [6]”, > 250 µM.

As for `c1ccc2c(c1)cc1ccc3cccc4ccc2c1c34` [Benzo[a]pyrene], in the data set on HEK293 cells [2] (24 h co-culture with BioActivator, up to 250 μM, compared to cell free agarose bead), the “HEK293 cytotoxicity co-cultured with BioActivator (in words)” value is given as “No HEK293 cytotoxicity”. The “HEK293 cytotoxicity co-cultured with cell free agarose bead (in words)” value in the data set with HEK293 cells [2] (24 h co-culture with cell free agarose bead, up to 250 μM) is given as “No HEK293 cytotoxicity”. Also, the CC50 in the data set “in vitro [4]” (setting [13]), in “in vitro [5]” (setting [14]), in “in vitro [5]” (setting [15]) and in the data set “in vitro [6]” was > 250 µM in each case.

Take `O=P1(N(CCCl)CCCl)NCCCO1` (stereo not shown) [Cyclophosphamide]: in the data set on HEK293 cells [2] (human), the “HEK293 cytotoxicity co-cultured with BioActivator (in words)” value was “No HEK293 cytotoxicity”. In addition, in the data set with HEK293 cells [2] (human), the “HEK293 cytotoxicity co-cultured with cell free agarose bead (in words)” value was “No HEK293 cytotoxicity”. Further, the CC50 in the data set “in vitro [4]” (setting [9]), in “in vitro [4]” (setting [10]), in the data set “in vitro [5]” (setting [11]), in “in vitro [5]” (setting [12]) and in “in vitro [6]” was > 250 µM in each case.

Consider `O=C(O)Cc1ccccc1Nc1c(Cl)cccc1Cl` [Diclofenac], for which the “Metabolite generation in slotted pipette tip compared with control hepatocyte suspension cultures (in words)” value in data set [7] was “compare favorably”. For the same molecule, the “Effect of cryopreservation on hepatocyte clearance of probe (in words)” value in data set [8] is listed as “minimal impact”. In addition, the “Metabolite Generation (marker metabolite of the probe)” value in data set [8] (human, 30 min) came out at 0.98 pmol/min/10^6 hepatocytes.

For the molecule `COc1cccc2c1C(=O)c1c(O)c3c(c(O)c1C2=O)C[C@@](O)(C(=O)CO)C[C@@H]3O[C@H]1C[C@H](N)[C@H](O)[C@H](C)O1` [Doxorubicin], the “Cytotoxicity in BioActivator hepatocytes at end of co-culture (in words)” value in data set [1] is on record as “cytotoxicity was evident”; in data set [1] (human) it was “LC50 responses”. For the same molecule, in the data set on HEK293 cells [2] (human), the “HEK293 cytotoxicity co-cultured with BioActivator (in words)” value is on record as “measurable LC50 responses”. For the same molecule, the “HEK293 cytotoxicity co-cultured with cell free agarose bead (in words)” value with HEK293 cells [2] (human) was “measurable LC50”. In addition, the “HEK293 cytotoxicity of compounds pre-conditioned in the BioActivator (in words)” value in the data set on HEK293 cells [3] is “produce cytotoxicity”. Besides, the CC50 in “in vitro [4]” (setting [13]) turned out to be 71 ± 2.7 µM; in “in vitro [5]” (setting [14]), 59 ± 5.1 µM; in “in vitro [5]” (setting [15]), 108 ± 9.3 µM; in the data set “in vitro [6]”, 104 ± 4.6 µM.

Consider `CCOc1ccc(NC(C)=O)cc1` [Phenacetin], for which the “Metabolite generation in slotted pipette tip compared with control hepatocyte suspension cultures (in words)” value in data set [7] was “compare favorably”.

For the molecule `O=C1OC(c2ccc(O)cc2)(c2ccc(O)cc2)c2ccccc21` [Phenolphthalein], in data set [7], the “Metabolite generation in slotted pipette tip compared with control hepatocyte suspension cultures (in words)” value was “compare favorably”. Moreover, the “Effect of cryopreservation on hepatocyte clearance of probe (in words)” value in data set [8] is “minimal impact”. In addition, the “Metabolite Generation (marker metabolite of the probe)” value in data set [8] (30 min) is 0.12 pmol/min/10^6 hepatocytes; in data set [8] (18 h), 0.02 pmol/min/10^6 hepatocytes.

As to `O=c1ccc2ccccc2o1` [coumarin], the “Metabolite generation in slotted pipette tip compared with control hepatocyte suspension cultures (in words)” value in data set [7] was “compare favorably”.

Take Aflatoxin B1: in the data set on HEK293 cells [2], the “HEK293 cytotoxicity co-cultured with BioActivator (in words)” value is reported as “No HEK293 cytotoxicity” and the “HEK293 cytotoxicity co-cultured with cell free agarose bead (in words)” value is “No HEK293 cytotoxicity”.
